Molecular target: T1, human adenosine A2A receptor (Homo sapiens, UniProt P29274)
T1 construct: expressed in transfected cells; host or cells: CHO cells, Semliki Forest virus expression system; washed membrane preparation
Assay: [3H]-SCH-58261 binding assay, human adenosine A2A receptor (CHO cell membranes, SPA)
Settings: [3H]-SCH-58261 1 nM; membranes of CHO cells expressing human A2A receptor; Ki from IC50 by Cheng-Prussoff equation; read-out: hA2 (pKi) (converted)
Procedure: Human Adenosine A2A Receptor
The human adenosine A2A receptor was recombinantly expressed in chinese hamster ovary (CHO) cells using the semliki forest virus expression system. Cells were harvested, washed twice by centrifugation, homogenized and again washed by centrifugation. The final washed membrane pellet was suspended in a Tris (50 mM) buffer containing 120 mM NaCl, 5 mM KCl, 2 mM CaCl2 and 10 mM MgCl2 (pH 7.4) (buffer A). The [^3H]-SCH-58261 (Dionisotti et al., 1997, Br J Pharmacol 121, 353; 1 nM) binding assay was carried out in 96-well plates in the presence of 2.5 μg of membrane protein, 0.5 mg of Ysi-poly-1-lysine SPA beads and 0.1 U adenosine deaminase in a final volume of 200 μl of buffer A. Non-specific binding was defined using xanthine amine congener (XAC; 2 μM). Compounds were tested at 10 concentrations from 10 μM-0.3 nM. All assays were conducted in duplicate and repeated at least two times. Assay plates were incubated for 1 hour at room temperature before centricentrifugation and then bound ligand determined of test compound using a Packard Topcount scintillation counter. IC50 values, the concentration where 50% of the […] binding is displaced, were calculated using a non-linear curve fitting program and Ki values calculated using the Cheng-Prussoff equation.
Preferred compounds of formula I have a pKi>6.4.

T1 sequence (P29274 whole entry): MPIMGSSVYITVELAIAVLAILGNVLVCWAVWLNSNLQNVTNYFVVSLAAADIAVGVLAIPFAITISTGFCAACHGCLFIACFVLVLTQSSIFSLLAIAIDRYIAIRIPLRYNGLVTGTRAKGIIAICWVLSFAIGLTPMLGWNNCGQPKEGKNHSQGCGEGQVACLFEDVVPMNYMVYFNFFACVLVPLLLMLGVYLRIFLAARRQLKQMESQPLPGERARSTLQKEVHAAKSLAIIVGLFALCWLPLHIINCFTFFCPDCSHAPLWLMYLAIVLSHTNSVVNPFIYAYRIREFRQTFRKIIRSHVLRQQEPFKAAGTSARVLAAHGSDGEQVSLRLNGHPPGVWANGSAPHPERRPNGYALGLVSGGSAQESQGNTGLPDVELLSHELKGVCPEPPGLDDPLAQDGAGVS

| SMILES | Ki [µM] |
| --- | --- |
| COc1ccc(-c2ccccc2)c2sc(NC(=O)N3CCSCC3)cc12 [Example 1, Thiomorpholine-4-carboxylic acid (4-methoxy-7-phenyl-benzo[b]thiophen-2-yl)-amide] | 0.155 |
| COc1ccc(-c2ccccc2)c2sc(NC(=O)N3CCOCC3)cc12 [Example 2, Morpholine-4-carboxylic acid (4-methoxy-7-phenyl-benzo[b]thiophen-2-yl)-amide] | 0.263 |
| COc1ccc(-c2ccccc2)c2sc(NC(=O)N3CCCCC3)cc12 [Example 3, Piperidine-1-carboxylic acid (4-methoxy-7-phenyl-benzo[b]thiophen-2-yl)-amide] | 0.257 |
| COc1ccc(-c2ccccc2)c2sc(NC(=O)N3CCC(O)CC3)cc12 [Example 4, 4-Hydroxy-piperidine-1-carboxylic acid (4-methoxy-7-phenyl-benzo[b]thiophen-2-yl)-amide] | 0.126 |
| COc1ccc(-c2ccccc2)c2sc(NC(=O)N3CCC(OC)CC3)cc12 [Example 5, 4-Methoxy-piperidine-1-carboxylic acid (4-methoxy-7-phenyl-benzo[b]thiophen-2-yl)-amide] | 0.347 |
| COc1ccc(-c2ccccc2)c2sc(NC(=O)N3CCC(CO)CC3)cc12 [Example 6, 4-Hydroxymethyl-piperidine-1-carboxylic acid (4-methoxy-7-phenyl-benzo[b]thiophen-2-yl)-amide] | 0.0977 |
| COc1ccc(-c2ccccc2)c2sc(NC(=O)N3CCN(C)CC3)cc12 [Example 7, 4-Methyl-piperazine-1-carboxylic acid (4-methoxy-7-phenyl-benzo[b]thiophen-2-yl)-amide] | 0.24 |
| COc1ccc(-c2ccccc2)c2sc(NC(=O)c3ccc(C)nc3)cc12 [Example 8, N-(4-Methoxy-7-phenyl-benzo[b]thiophen-2-yl)-6-methyl-nicotinamide] | 0.302 |
| COc1ccc(-c2ccccc2)c2sc(NC(=O)c3ccnc(C)c3)cc12 [Example 9, N-(4-Methoxy-7-phenyl-benzo[b]thiophen-2-yl)-2-methyl-isonicotinamide] | 0.389 |
| COc1ccc(-c2ccccc2)c2sc(NC(=O)c3ccc(F)cc3)cc12 [Example 10, 4-Fluoro-N-(4-methoxy-7-phenyl-benzo[b]thiophen-2-yl)-benzamide] | 0.0437 |
